Results reported in patent US7309579B2, “Method for screening for activators of soluble guanylate cyclase having oxidized heme iron” (Sanofi-Aventis Deutschland GmbH, priority 1999, dated 2007).

How the values were obtained:
[1] = biological target: T1, soluble guanylate cyclase with a trivalent heme iron (Bos taurus, UniProt P16068); test: Activation of soluble guanylate cyclase after oxidation of the heme iron (enzyme stored at 4° C. for about 7 days); assay type: biochemical, bovine; details: sGC with trivalent heme iron, prepared by storing freshly prepared enzyme at 4° C. for about 7 days
T1 construct: suitably diluted sGC enzyme solution (isolated from bovine lung); from tissue; host or cells: bovine lung
T1 sequence (P16068 1-619): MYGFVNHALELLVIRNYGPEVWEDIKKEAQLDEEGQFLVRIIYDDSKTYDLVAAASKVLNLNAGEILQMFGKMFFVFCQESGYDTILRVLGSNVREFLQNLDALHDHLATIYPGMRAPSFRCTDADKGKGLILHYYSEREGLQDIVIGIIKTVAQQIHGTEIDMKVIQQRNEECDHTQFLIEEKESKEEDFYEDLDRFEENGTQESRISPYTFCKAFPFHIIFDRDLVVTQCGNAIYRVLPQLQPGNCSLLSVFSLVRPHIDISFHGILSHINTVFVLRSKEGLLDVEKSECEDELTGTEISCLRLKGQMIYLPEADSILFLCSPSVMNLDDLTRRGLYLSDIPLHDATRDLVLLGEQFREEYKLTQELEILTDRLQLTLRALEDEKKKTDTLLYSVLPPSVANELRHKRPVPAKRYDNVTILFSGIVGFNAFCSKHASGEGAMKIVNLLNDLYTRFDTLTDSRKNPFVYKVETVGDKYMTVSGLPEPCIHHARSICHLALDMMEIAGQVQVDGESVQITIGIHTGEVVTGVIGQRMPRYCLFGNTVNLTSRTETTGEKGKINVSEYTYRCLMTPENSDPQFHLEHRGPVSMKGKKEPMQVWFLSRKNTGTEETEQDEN
T1 sequence (P19687 1-691 partner): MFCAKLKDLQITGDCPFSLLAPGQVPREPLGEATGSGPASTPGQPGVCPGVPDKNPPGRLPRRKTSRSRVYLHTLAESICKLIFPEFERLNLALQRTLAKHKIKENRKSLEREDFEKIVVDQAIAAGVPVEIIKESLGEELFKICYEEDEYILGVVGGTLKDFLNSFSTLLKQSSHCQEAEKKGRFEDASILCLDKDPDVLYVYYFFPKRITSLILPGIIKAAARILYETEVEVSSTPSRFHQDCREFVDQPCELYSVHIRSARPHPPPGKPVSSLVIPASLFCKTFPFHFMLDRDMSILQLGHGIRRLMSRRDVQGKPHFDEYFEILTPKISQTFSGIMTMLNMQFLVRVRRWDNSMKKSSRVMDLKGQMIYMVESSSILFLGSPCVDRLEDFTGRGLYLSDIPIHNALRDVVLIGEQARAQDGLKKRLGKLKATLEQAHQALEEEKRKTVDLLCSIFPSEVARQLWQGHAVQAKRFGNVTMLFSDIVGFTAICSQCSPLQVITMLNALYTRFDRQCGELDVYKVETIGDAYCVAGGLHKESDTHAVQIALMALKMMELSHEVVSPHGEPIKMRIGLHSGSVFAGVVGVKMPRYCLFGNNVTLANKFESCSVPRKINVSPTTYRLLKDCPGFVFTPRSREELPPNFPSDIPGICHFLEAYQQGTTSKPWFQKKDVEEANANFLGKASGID
Protocol: (§1) Soluble guanylate cyclase (sGC) catalyzes the conversion of GTP into cGMP and pyrophosphate. In the presence of nicotinamide adenine dinucleotide (NAD^+) and nicotinamide mononucleotide adenylyltransferase (NAT, EC 2.7.7.1), pyrophosphate is converted into ATP and nicotinamide mononucleotide. The ATP formed can be quantified luminometrically with the aid of a luciferase in microtiter plates.
(§2) The substance to be investigated is dissolved in DMSO and diluted with DMSO/water to a final concentration of 50 μM in the assay mixture. The DMSO concentration in the assay mixture should not exceed 5% (v/v).
(§3) 100 μl of reaction mixture should contain 50 mM TEA buffer (pH 7.4), 3 mM MgCl2, 3 mM GSH, 0.1 mM GTP, 1 mM IBMX (isobutylmethylxanthine), 0.2 mM NAD^+, 0.4 mU of NAT, suitably diluted sGC enzyme solution (isolated from bovine lung as described by P. Humbert et al., Methods of Enzymology 195, 384-391 (1991)) and the test substance or solvent (for determining the basal enzyme activity). The reaction is started by adding the sGC. The reaction mixture is incubated at room temperature for 60 min and then stopped by cooling in ice and adding 50 mM EDTA, pH 8.0. […] The relative luminescence units (RLU) can be measured in a microtiter plate luminometer.
(§4) The sGC activity is obtained after subtracting the blank RLU (incubation without enzyme) from the measured RLU. […]

[2] = biological target: T2, heme-free soluble guanylate cyclase (Bos taurus, UniProt P16068); test: Activation of heme-free soluble guanylate cyclase; assay type: biochemical, bovine
T2 sequence (P16068 1-619): T1 sequence (P16068 1-619)
T2 sequence (P19687 1-691 partner): T1 sequence (P19687 1-691 partner)
Protocol: as §1, §2, §3, §4

With COc1cc(NS(=O)(=O)c2ccc(Cl)cc2)c(C(=O)Nc2ccc(S(=O)(=O)N3CCSCC3)cc2)cc1OC [2-(4-chlorophenylsulfonylamino)-4,5-dimethoxy-N-(4-(thiomorpholine-4-sulfonyl)phenyl)benzamide] the EC50 [1] was 0.5 µM, the “stimulation of the activity” value [1] was 17.6 fold and the “stimulation of the activity” value [2] was 58.2 fold. The EC50 ([2]; read-out: affinity) was 2.4 µM.
